The values below come from PubChem BioAssay AID540258 (Broad Institute, 2011).

Activity calls are given as the source filed them.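 The calls were made as follows: active = fitted curve reaching 40% activation at or below the top valid dose tested; inconclusive = flat curve at 30 to 70% activation, or poor fit; inactive = the rest.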

The subject of this experiment is SK-MEL-5 TRPM1 promoter luciferase reporter, 24 h. Nature of the experiment: activation of TRPM1 promoter luciferase in melanoma cells – SK-MEL-5 cells, cherry-pick samples, dose response (AID 540258).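 Also: potency for activators that raise TRPM1 promoter luciferase signal.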
In the case of `COc1ccccc1NC(=O)Nc1nc2ccc(S(N)(=O)=O)cc2s1`, the AC40 was 1.57 µM.

Turning to `CCN1CCN(c2ccc(NC(=O)c3cccc(F)c3)cc2Cl)CC1`, the AC40 was 3.08 µM. Then `CCc1nc(NC(C)(C)C)c2cnn(-c3ccccc3)c2n1`, with 6.25 µM; and `Cc1ccnc(NC(=O)C2CC(=O)N(Cc3ccccc3)C2)c1` (centres undefined), with 5.34 µM. Then `CC(=O)c1cnc2c(-c3cccc(Br)c3)cnn2c1C`, with 13.2 µM. As to `O=C(Oc1ccc2ccccc2c1Cl)N1CCCCCC1`, the AC40 was 0.557 µM. Consider `Cn1c(SCc2ccccc2Cl)nc2ccccc21`, for which the AC40 is 0.794 µM. For the compound `c1cnc(Nc2nc(-c3ccc4ccccc4c3)cs2)nc1`, the AC40 was 0.516 µM. In the case of `O=C1OC(c2ccccc2)=C/C1=C/N1CCCCC1`, the AC40 is 2.12 µM.

For `CCC(=O)N1CCc2nc(-c3ccccc3)sc2C1`, the AC40 was 6.73 µM. With `Cc1ccn(-c2cccc(-n3ccc(C)n3)n2)n1`, the AC40 was 0.834 µM.

Regarding `O=C(Nc1ccccc1)N1CCC(c2ccccc2)C1` (centres undefined), the AC40 is 1.8 µM.

With `Nc1ccc(-c2nc3ncccc3o2)c(O)c1`, the AC40 was 5.79 µM. In the case of `Cc1ccn2c(C(=O)c3ccc(Cl)cc3)cnc2c1`, the AC40 is 0.803 µM. Then `Cc1nc2ccccc2nc(=O)c1NNc1ccccc1`, with 3.99 µM. Then `COc1ccc(-c2cc(C(=O)Nc3ccccc3F)on2)cc1`, with 2.53 µM; and `Cc1cc(CN(C)C(=O)c2ccc3nc(Cc4ccccc4F)oc3c2)on1`, with 14.1 µM. Then `CCc1c(C(=O)Nc2ccc(C)c(C)c2)[nH]c(C)c1C(C)=O`, with 5.17 µM.

On to `Nc1ccc2cc3ccccc3cc2c1`, for which the AC40 is 2.88 µM. For `CC(C)(C)c1cc(NC(=O)Nc2ccccc2)no1` the value was 0.864 µM.

Take `Cc1ccc(Nc2nc(Cl)nc(NC(C)(C)C)n2)cc1`: the AC40 was 3.69 µM.

As for `O=C(Cc1cccs1)NCc1ccc(Cl)cc1Cl`, the AC40 is 5.59 µM. For `CC(C)c1ccc(NC(=O)Cn2ncc3ccccc32)cc1` the value was 6.86 µM. For `CCCC(=O)Nc1nc(-c2ccccc2)ns1` the value was 4.23 µM; for `CC(=O)c1ccc2c(c1)Cc1cc(C(C)=O)ccc1-2`, 1.19 µM. Then `CCCCCc1ccc(-c2ccc(OC)cc2)nc1`, with 1.38 µM; and `Cc1nc(N2CCN(S(=O)(=O)c3ccccc3)CC2)c2cc(-c3ccccc3)sc2n1`, with 22.9 µM; and `O=C(Nc1ccc(F)cc1Cl)c1ccc2c(=O)n3c(nc2c1)CCC3`, with 3.5 µM. In the case of `CC(C)c1ccc(N=C2NN=C(c3cccs3)CS2)cc1`, the AC40 is 0.547 µM.

In the case of `c1ccc2oc(-c3ccc4nc[nH]c4c3)nc2c1`, the AC40 is 0.866 µM. Then `Clc1ccc(-n2nnc(-c3cccnc3Cl)n2)cn1`, with 3.3 µM; and `Cc1nc2ccc(NC(=O)Cc3c(F)cccc3Cl)cc2s1`, with 3.66 µM; and `Cc1ccc(C(=O)Nc2ncccc2S(=O)(=O)c2ccccc2)cc1`, with 2.94 µM.

On to `O=C(N=C1N=C2C=CC=CN2Cc2ccccc21)c1ccc(S(=O)(=O)N2CCCC2)cc1`, for which the AC40 was 30.1 µM. For `Cc1ccc(-n2nnc(-c3ccnc4ccccc34)n2)cc1` the value was 3.49 µM; for `CC(=O)c1cccc(OCc2cc(C(=O)N(C)Cc3cnccn3)no2)c1`, 9.27 µM.

Take `CCc1ccc2[nH]c3nc(C)cc(C)c3c(=O)c2c1`: the AC40 was 4 µM. Then `CSc1ccccc1OCc1cc(C(=O)N[C@H]2CCCCNC2=O)no1`, with 2.22 µM. For the compound `Cc1ccccc1-c1nc(Cc2ccccc2)no1`, the AC40 is 2.78 µM. In the case of `COc1ccc2c(c1OC)C(=O)OC2Nc1nc(-c2cc3cc(Br)ccc3oc2=O)cs1` (centres undefined), the AC40 is 0.915 µM. Turning to `COc1ccc(/C=C/c2nc3ccccc3n2Cc2ccc(OC)c(OC)c2)cc1`, the AC40 is 1.93 µM.

`c1ccc(SCc2nc(-c3ccccn3)no2)cc1`: the AC40 was 3.01 µM. Take `CN(C)C(CNC(=O)c1cc2ccccc2oc1=O)c1ccccc1` (centres undefined): the AC40 was 5.72 µM.

With `CS(=O)(=O)N1CCc2cc(C(=O)Nc3ccccc3Br)ccc21`, the AC40 is 4.96 µM.

As for `Fc1cc(Br)ccc1COc1ccc(-c2nnco2)cc1`, the AC40 was 3.08 µM. Then `c1ccc2cc(C3CCCCC3)ncc2c1`, with 29.4 µM. Then `Cc1nn2cc(-c3ccc(Cl)cc3)cnc2c1Cl`, with 8.04 µM; and `O=c1c2ccccc2oc2cc(-c3ccc4cc[nH]c4c3)ccc12`, with 2.25 µM. As for `Clc1ccc(-c2nnc(CCc3ccccc3)o2)c(Cl)c1`, the AC40 was 2.55 µM. Then `COC(=O)c1c(-c2ccc(S(C)(=O)=O)cc2)sc2ccc(OC)cc12`, with 2.76 µM; and `Clc1ccc(-c2cnnc(-c3ccccn3)n2)cc1`, with 1.71 µM. For `CCNc1nc(N)nc(Oc2ccc(C(=O)OC)cc2)n1` the value was 3.64 µM; for `CCc1ccc(-c2cn3nc(-c4ccccc4)cnc3n2)cc1`, > 35 µM (inactive). Then `CC(=O)N(c1ccccc1)c1nnc(-c2cnc(C)cn2)s1`, with 1.55 µM; and `O=C(Nc1ccc(C(F)(F)F)cc1)c1ccccc1`, with 3.48 µM; and `COc1cc(SC)ccc1C(=O)NCC1CCCCC1`, with 14.4 µM.

For the compound `CCn1cnc2cc(NCc3ccccc3Cl)ccc21`, the AC40 was 14.6 µM.

On to `O=C(CCNc1ccccc1)c1ccc2c(c1)OCO2`, for which the AC40 was 1.12 µM. For the compound `Cc1cccc(NC(=O)c2onc3c2CCCC3)c1C`, the AC40 is 1.62 µM. Then `CCCn1nnc2sc3c(c2c1=O)CCC(C)C3` (centres undefined), with 3.32 µM; and `O=C(Nc1ccc(O)cc1)c1cc2ccccc2c(=O)s1`, with 2.3 µM. For `O=c1c2c(nc3cc(-c4ccc(Br)cc4)[nH]n13)CCCC2` the value was 0.286 µM. As for `Cc1ccc(-c2cn(-c3ccccc3)c(=S)[nH]2)cc1C`, the AC40 is 0.997 µM. Take `Cc1ccc(CONC(=O)c2ccc(C)cc2)cc1`: the AC40 is 6.05 µM. With `COc1ccc(/C=N/Nc2ccccn2)cc1O`, the AC40 was 3.01 µM.

For the compound `CCCC(=O)c1ccc(N2CCCCCC2)c(F)c1`, the AC40 is 3.36 µM. Turning to `COc1ccc(OC)c(/C=N/N(C)c2ccccc2)c1`, the AC40 was 1.44 µM. Then `CCCCN1CCc2c([nH]c3c(C)cccc23)C1=O`, with > 35 µM (inactive); and `Cc1ccccc1S(=O)(=O)Oc1ccc2ccc(O)cc2c1`, with 25.7 µM. Then `Cc1nn2c(-c3ccccc3)ccnc2c1-c1ccccc1`, with 4.34 µM; and `Nc1nc2ccccc2cc1-c1cccs1`, with 6.26 µM.

Turning to `Nc1nc(-c2cc(-c3ccccc3)no2)cs1`, the AC40 was 0.331 µM. For `CC1(C)CN=c2s/c(=C\c3ccc(Cl)cc3)c(=O)n2C1` the value was 1.21 µM; for `CSCc1ccc(C(=O)Nc2cc(C)cc(C)c2)cc1`, 2.81 µM. On to `CC(=O)Nc1nnc(COc2ccc(Cl)cc2)s1`, for which the AC40 was 3.16 µM.

For the compound `O=C(Nc1ccc2c(c1)CCC2)C1CCCN(c2ncccn2)C1` (centres undefined), the AC40 is 3.54 µM.

`CN1C(=O)C2C=CC1C1C(=O)N(c3ccccc3)C(=O)C21` (centres undefined): the AC40 was 1.89 µM. Then `Cc1ccc(O)c(C2=Nc3ccccc3C2(C)C)c1`, with 8.51 µM; and `Cc1cccc(OCc2nc(-c3nonc3N)no2)c1C`, with 3.81 µM; and `CCCC(=O)Nc1ccc(C#Cc2ccccc2)cc1`, with 1.63 µM. For `COc1ccc(-c2csc(N(C)C(=O)c3cccs3)n2)cc1` the value was 6.73 µM.

Regarding `Cc1ccccc1S(=O)(=O)/N=C(/Nc1nc2ccccc2s1)c1ccccc1`, the AC40 was 31 µM. Then `O=C1c2ccccc2C(=O)N1CCc1c[nH]c2ccccc12`, with 2.19 µM; and `COc1cc2sc3cc(NCC[C@@H]4CCCN4C)ccc3c(=O)c2cc1OC`, with 5.18 µM. Then `Brc1csc(/C=N/Nc2nc3ccccc3s2)c1`, with 0.667 µM. In the case of `CCc1ccc(OC(=O)Nc2ccccc2)cc1`, the AC40 was 0.469 µM. For `c1ccc(-c2ccc3[nH]ccc3c2)cc1` the value was 14 µM.

As to `O=C(Nc1ccc2oc(-c3ccccc3)nc2c1)c1cccnc1`, the AC40 was 5.22 µM. For `COc1ccc(-c2cn(CC3CCCCC3)nn2)cc1` the value was 3.61 µM.

Take `O=C(Nc1ccc(NC(=O)c2ccccc2F)cc1)c1cccs1`: the AC40 is 4.26 µM. Then `CC1CCN(C(=O)c2cc(-c3ccccc3O)on2)CC1`, with 0.383 µM. For `CC(=O)c1ccc2oc3ccccc3c(=O)c2c1` the value was 10.1 µM; for `COc1ccc(/C=C2\CCn3c2nc2ccccc2c3=O)cc1OC`, 0.899 µM; for `Cc1ccc(S(=O)(=O)Nc2cccc(-c3ccc(N4CCCCCC4)nn3)c2)cc1`, 4.9 µM.

For the compound `O=C(OCc1csc(-c2ccccc2)n1)c1ccc(O)cc1`, the AC40 was 7.95 µM.

Turning to `c1ccc2nc(-c3nccs3)ccc2c1`, the AC40 was 8.94 µM.

Turning to `C=CCSc1nncn1/N=C/c1ccc(OC)cc1`, the AC40 was 1.41 µM. For `COC(=O)Cc1csc(Nc2ccccc2Cl)n1` the value was 6.3 µM; for `c1ccc(-c2nc3ccccc3[nH]2)cc1`, 1.81 µM; for `Brc1ccc(OCc2cn3ccccc3n2)cc1`, 0.592 µM. Then `COc1ccccc1C(=O)NCCC(=O)NC1CCC(C)CC1` (centres undefined), with 3.62 µM; and `N#Cc1c(-c2ccc(Cl)cc2)ccn2nc(C3CCCCC3)nc12`, with 2.4 µM; and `O=C(O)c1ccc(N/N=C/c2cccc(C(F)(F)F)c2)cc1`, with 0.488 µM. For `CCN(CC)C(=O)OCc1c(-c2ccccc2)ncc2ccccc12` the value was 11.9 µM; for `Cc1ccc(Nc2cc(C)nc(-c3ccccc3)n2)cc1`, 2.33 µM; for `Cc1csc2nc(CSc3nc4ccccc4o3)c(Br)n12`, 1.35 µM.

In the case of `CC(=O)c1sc(NC(=O)c2ccc3c(c2)OCO3)nc1C`, the AC40 was 1.39 µM. With `O=C(Nc1ccc(Cl)c(Cl)c1)Nc1ccccc1O`, the AC40 was 0.982 µM.

As to `O=C(CC1CCCC1)Nc1ccc(Br)cc1`, the AC40 is 11.6 µM. For `CN(c1ccccc1)c1nc2ccsc2c(=O)s1` the value was 5.15 µM. For the compound `c1ccc(CSCc2cn3ccsc3n2)cc1`, the AC40 is 11.2 µM. Then `Cc1ccc(C(=O)N(CCN2CCCCC2)CC2CCCN(C3CCCC3)C2)s1` (centres undefined), with 5.39 µM; and `Cc1cccc2c1-c1sc(C(=O)N3CCCCC3)cc1CO2`, with 2.7 µM; and `c1ccc(CSCc2nc3ccccc3[nH]2)cc1`, with 6.65 µM.
